Experimental data taken from US11597708B2, “Inhibitors of heat shock factors and uses thereof” (HSF Pharmaceuticals SA, priority 2016, dated 2023).

What was measured:
HSE DNA-binding activity = target: T1, HSE DNA-binding activity (Homo sapiens, UniProt Q00613); test: EMSA using extracts of heat-treated HeLa cells, in the presence of IHSF; type: biochemical; settings: extracts of HeLa cells heat-treated at 43° C. for 30 min; concentrations as high as about 0.5 mM
T1 construct: functionally linked to an hsp70b promoter and therefore controlled by endogenous HSF1; endogenous in cells; host or cells: HeLa cells / HeLa-derived cell line Z74
T1 sequence (Q00613 1-529): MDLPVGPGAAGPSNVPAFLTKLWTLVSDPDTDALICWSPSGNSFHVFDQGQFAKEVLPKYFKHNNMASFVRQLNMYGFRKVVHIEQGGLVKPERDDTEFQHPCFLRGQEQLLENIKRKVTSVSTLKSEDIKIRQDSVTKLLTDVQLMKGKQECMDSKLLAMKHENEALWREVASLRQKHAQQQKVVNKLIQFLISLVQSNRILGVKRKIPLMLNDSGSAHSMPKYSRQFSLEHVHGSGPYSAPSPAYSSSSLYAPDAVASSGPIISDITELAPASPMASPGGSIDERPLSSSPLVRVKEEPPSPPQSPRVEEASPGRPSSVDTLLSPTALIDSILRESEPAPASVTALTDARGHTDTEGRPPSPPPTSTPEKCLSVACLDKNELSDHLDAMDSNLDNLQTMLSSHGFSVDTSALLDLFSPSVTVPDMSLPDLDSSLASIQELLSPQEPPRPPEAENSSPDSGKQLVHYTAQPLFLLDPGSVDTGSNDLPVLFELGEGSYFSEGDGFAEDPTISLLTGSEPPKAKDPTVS
Protocol: Electrophoretic mobility shift assays (EMSA) using a radiolabeled HSE DNA probe were carried out to assess HSF1 DNA-binding activity in extracts of heat-treated (43° C./30 min) HeLa cells that had been exposed to different concentrations of compounds 058 or 115 (FIG. 3A, top panels). […] HSF1 degradation correlated well with the observed decrease in DNA-binding activity. Therefore, HSF1 degradation provides a sufficient explanation for the reduced HSE DNA-binding activity in cells treated with IHSF 058. […] EMSA were also carried out using extracts of HeLa cells that had been heat-treated at 43° C. for 30 min.

A549 = test: Alamar Blue viability assay; type: cell-based; settings: Homo sapiens, Lung, P53 Wt, 96-hour exposure
Protocol: (§1) Cultures of HeLa cells were exposed for 96 hours to different concentrations of IHSF 001, 058 and 115, and viability was assessed using an Alamar Blue assay. It is noted that this standard assay examines attached cells only. This subject will be discussed in more detail below. […] The relative cytotoxicity of the compounds appears to parallel their respective activities as inhibitors of HSF1 function (inhibition of RLuc expression in Z74 cells). We next examined the viability of different human cancer cell lines subsequent to a 96-hour exposure to compound 115 (Table 3). HSF1 was reported as being required for optimal p21 expression and for p53-mediated cell cycle arrest in response to genotoxins. Logan, I. R. et al. (2009) Nucleic Acids Res. 37: 2962-2971. […] Cell lines of different p53 status were included in the experiments in order to find out whether sensitivity to IHSF 115 was related to p53 status. […] No effect of p53 status could be discovered. It is noted that a number of additional HSF inhibitors of the present disclosure were tested and found to effectively reduce the viability of human cancer cells.

A673 = test: Alamar Blue viability assay; type: cell-based; settings: Homo sapiens, Ewing’s sarcoma, P53 Mut, 96-hour exposure
Protocol: as §1

CAMA-1 = test: Alamar Blue viability assay; type: cell-based; settings: Homo sapiens, Breast, P53 Mut, 96-hour exposure
Protocol: as §1

HCC1143 = test: Alamar Blue viability assay; type: cell-based; settings: Homo sapiens, Breast, P53 Mut, 96-hour exposure
Protocol: as §1

HepG2 = test: Alamar Blue viability assay; type: cell-based; settings: Homo sapiens, Hepatocellular, P53 Wt, 96-hour exposure
Protocol: as §1

MCF-7 = test: Alamar Blue viability assay; type: cell-based; settings: Homo sapiens, MCF7, Breast, P53 Wt, 96-hour exposure
Protocol: as §1

MDA-MB-231 = test: Alamar Blue viability assay; type: cell-based; settings: Homo sapiens, Breast, P53 Mut, 96-hour exposure
Protocol: as §1

MDA-MB-453 = test: Alamar Blue viability assay; type: cell-based; settings: Homo sapiens, Breast, P53 Mut, 96-hour exposure
Protocol: as §1

MNNG/HOS = test: Alamar Blue viability assay; type: cell-based; settings: Homo sapiens, Osteosarcoma, P53 Mut, 96-hour exposure
Protocol: as §1

NCI-H3122 = test: Alamar Blue viability assay; type: cell-based; settings: Homo sapiens, Lung, P53 Wt, 96-hour exposure
Protocol: as §1

NCI-H460 = test: Alamar Blue viability assay; type: cell-based; settings: Homo sapiens, Lung, P53 Wt, 96-hour exposure
Protocol: as §1

OV56 = test: Alamar Blue viability assay; type: cell-based; settings: Homo sapiens, Ovarian carcinoma, P53 Mut, 96-hour exposure
Protocol: as §1

PC-3 = test: Alamar Blue viability assay; type: cell-based; settings: Homo sapiens, Prostate, P53 Null, 96-hour exposure
Protocol: as §1

RPMI 8266 = test: Alamar Blue viability assay; type: cell-based; settings: Homo sapiens, RPMI8266, Multiple myeloma, P53 Mut, 96-hour exposure
Protocol: as §1

SK-OV-3 = test: Alamar Blue viability assay; type: cell-based; settings: Homo sapiens, Ovarian carcinoma, P53 Mut, 96-hour exposure
Protocol: as §1

Saos-2 = test: Alamar Blue viability assay; type: cell-based; settings: Homo sapiens, Osteosarcoma, P53 Null, 96-hour exposure
Protocol: as §1

T47D = test: Alamar Blue viability assay; type: cell-based; settings: Homo sapiens, Breast, P53 Mut, 96-hour exposure
Protocol: as §1

THP-1 = test: Alamar Blue viability assay; type: cell-based; settings: Homo sapiens, Acute monocytic leukemia, P53 Mut, 96-hour exposure
Protocol: as §1

U-2 OS = test: Alamar Blue viability assay; type: cell-based; settings: Homo sapiens, U2OS, Osteosarcoma, P53 WT, 96-hour exposure
Protocol: as §1

U266B1 = test: Alamar Blue viability assay; type: cell-based; settings: Homo sapiens, Multiple myeloma, P53 Mut, 96-hour exposure
Protocol: as §1

sNF02.2 = test: Alamar Blue viability assay; type: cell-based; settings: Homo sapiens, Malignant peripheral nerve sheath, P53 Wt, 96-hour exposure
Protocol: as §1

MM.1S = test: Alamar Blue viability assay; type: cell-based, human
Protocol: FIG. 5. (A) Viability of HeLa cell cultures mock-exposed (−) or exposed to the indicated concentrations of compounds 001, 058 or 115. (B) Viability of MM.1S cells mock-exposed (−) or exposed to the indicated concentrations of compound 115. Viability was assayed after 96 hours of exposure using an Alamar Blue assay.
as §1

SMILES: CCOC(=O)/C=C/C(=O)Nc1nccs1 [IHSF 001, (E)-ethyl 4-oxo-4-(thiazol-2-ylamino)but-2-enoate]
- HSE DNA-binding activity (EMSA) in the presence of IHSF (HSE DNA-binding activity): no reduction

SMILES: CN(C(=O)/C=C/C1=NCCCO1)c1ncc(-c2cccnc2)s1 [IHSF 115, (E)-3-(5,6-Dihydro-4H-[1,3]oxazin-2-yl)-N-methyl-N-(5-pyridin-3-yl-thiazol-2-yl)-acrylamide]
- EC50 (A549): 18.8 µM
- EC50 (A673): 1.9 µM
- EC50 (CAMA-1): 3.5 µM
- EC50 (HCC1143): 4.8 µM
- EC50 (HepG2): 5.2 µM
- EC50 (MCF-7): 5.2 µM
- EC50 (MDA-MB-231): 2.2 µM
- EC50 (MDA-MB-453): 4.2 µM
- EC50 (MNNG/HOS): 9.2 µM
- EC50 (NCI-H3122): 11 µM
- EC50 (NCI-H460): 9.4 µM
- EC50 (OV56): 6.8 µM
- EC50 (PC-3): 4 µM
- EC50 (RPMI 8266): 3.6 µM
- EC50 (SK-OV-3): 15 µM
- EC50 (Saos-2): 8 µM
- EC50 (T47D): 4.4 µM
- EC50 (THP-1): 6.9 µM
- EC50 (U-2 OS): 5.2 µM
- EC50 (U266B1): 3.9 µM
- EC50 (sNF02.2): 8.4 µM
- concentration at which complete loss of viability of MM.1S cells occurred (MM.1S; 96 hours exposure, Alamar Blue): 6.25 µM
- EC50 (MM.1S; Homo sapiens, MM1.S, MM.1S, Multiple myeloma, P53 Wt, 96-hour exposure): 1.7 µM
- concentration at which complete loss of viability of MM.1S cells occurred, in some experiments (MM.1S; in some experiments already): 3.125 µM
